# Read-outs that look alike come from different tables or passages of the source.
# Key:
# KRAS G12V = KRAS G12V (Homo sapiens, UniProt P01116, G12V); assay: GDP-GTP exchange assay (bodipy-GDP/GppNHp, SOS1), KRAS G12V; type: biochemical
# Protocol: (§1) The inhibitor potency of the exemplified compounds was determined in a fluorescence based guanine nucleotide exchange assay, which measures the exchange of bodipy-GDP (fluorescently labeled GOP) for GppNHp (Non-hydrolyzable GTP analog) to generate the active state of KRAS in the presence of SOS1 (guanine nucleotide exchange factor). Inhibitors were serially diluted in DMSO and a volume of 0.1 μL was transferred to the wells of a black low volume 384-well plate. 5 μL/well volume of bodipy-loaded KRAS G12D diluted to 2.5 nM in assay buffer (25 mM Hepes pH 7.5, 50 mM NaCl, 10 mM MgCl2 and 0.01% Brij-35) was added to the plate and pre-incubated with inhibitor for 4 h at r.t. Appropriate controls (enzyme with no inhibitor or with a G12D inhibitor) were included on the plate. The exchange was initiated by the addition of a 5 μL/well volume containing 1 mM GppNHp and 300 nM SOS1 in assay buffer. The 10 μL/well reaction concentration of the bodipy-loaded KRAS G12D, GppNHp, and SOS1 were 2.5 nM, 500 μM, and 150 nM, respectively. The reaction plates were incubated at r.t. for 2 h, a time estimated for complete GDP-GTP exchange in the absence of inhibitor. For the KRAS G12V mutant, similar guanine nucleotide exchange assays were used with 2.5 nM as final concentration for the bodipy loaded KRAS proteins and 3 h incubation after adding GppNHp-SOS1 mixture. A cyclic peptide described to selectively bind G12D mutant (Sakamoto et al., BBRC 484.3 (2017), 605-611) or internal compounds with confirmed binding were used as positive controls in the assay plates. Fluorescence intensities were measured on a PheraStar plate reader instrument (BMG Labtech) with excitation at 485 nm and emission at 520 nm.
# (§2) Either GraphPad prism or Genedata Screener SmartFit was used to analyze the data. The IC50 values were derived by fitting the data to a four parameter logistic equation producing a sigmoidal dose-response curve with a variable Hill coefficient.
# (§3) The symbol “†” indicates IC50≤100 nM, “††” indicates IC50>100 nM but ≤1 μM; and “†††” indicates IC50 is >1 μM but ≤5 μM, “††††” indicates IC50 is >5 μM but ≤10 μM. “NA” indicates IC50 not available.
# KRAS G12D = KRAS G12D (Homo sapiens, UniProt P01116, G12D); assay: GDP-GTP exchange assay (bodipy-GDP/GppNHp, SOS1), KRAS G12D; type: biochemical
# Protocol: as §1, §2, §3
# [1] = KRAS G12V mutant, value for the most potent isomer quoted for certain compounds, read-out: G12V (KRAS G12V exchange assay IC50)
# [2] = bodipy-loaded KRAS G12D 2.5 nM, 4 h pre-incubation, value for the most potent isomer quoted for certain compounds, read-out: G12D (KRAS G12D exchange assay IC50)
# Chain of KRAS G12V (P01116 1-188 isoform P01116-2 G12V): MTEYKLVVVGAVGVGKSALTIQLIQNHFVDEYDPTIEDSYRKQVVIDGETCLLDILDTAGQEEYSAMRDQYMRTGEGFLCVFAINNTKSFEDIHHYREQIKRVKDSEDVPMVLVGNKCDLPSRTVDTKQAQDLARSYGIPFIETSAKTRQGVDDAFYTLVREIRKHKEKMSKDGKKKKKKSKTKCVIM
# Chain of KRAS G12D (P01116 1-188 isoform P01116-2 G12D): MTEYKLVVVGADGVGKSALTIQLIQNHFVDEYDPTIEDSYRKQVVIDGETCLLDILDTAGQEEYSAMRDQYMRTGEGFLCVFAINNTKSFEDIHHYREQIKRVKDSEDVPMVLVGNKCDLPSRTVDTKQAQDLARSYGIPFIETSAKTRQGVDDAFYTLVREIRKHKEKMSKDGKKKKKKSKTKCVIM
"IC50 (KRAS G12V; Table H, column G12V, for compounds isolated as several atropisomers/diastereoisomers the value for the most potent isomer is quoted, read-out: KRAS G12V exchange assay IC50) [nM]","IC50 (KRAS G12D; Table H, column G12D, for compounds isolated as several atropisomers/diastereoisomers the value for the most potent isomer is quoted, read-out: KRAS G12D exchange assay IC50) [nM]",IC50 (KRAS G12V; [1]) [nM],IC50 (KRAS G12D; [2]) [nM],Compound
≤ 100,≤ 100,–,–,"Cc1nc2c(F)c(-c3cccc(Cl)c3Cl)c(CCC#N)cc2c2c1cc([C@H]1C[C@H](Oc3ccc(N4CCOCC4)nc3)CN1C(=O)C1CC1)n2[C@H]1[C@H]2CN[C@@H]1C2 [Example 36, 3-(1-((1R,4R,5S)-2-Azabicyclo[2.1.1]hexan-5-yl)-2-((2R,4S)-1-(cyclopropanecarbonyl)-4-((6-morpholinopyridin-3-yl)oxy)pyrrolidin-2-yl)-7-(2,3-dichlorophenyl)-6-fluoro-4-methyl-1H-pyrrolo[3,2-c]quinolin-8-yl)propanenitrile]"
–,–,100 to 1000,100 to 1000,COc1cccnc1O[C@H]1C[C@H](c2cc3c(C)nc4c(F)c(-c5cccc(Cl)c5Cl)c(CCC#N)cc4c3n2[C@H]2[C@H]3CN[C@@H]2C3)N(C(=O)C2CC2)C1 [Example 307]
–,–,≤ 100,≤ 100,Cc1nc2c(F)c(-c3cccc(Cl)c3Cl)c(CCC#N)cc2c2c1cc([C@H]1C[C@H](OCc3cncs3)CN1C(=O)C1CC1)n2[C@H]1[C@H]2CN[C@@H]1C2 [Example 97]
–,–,≤ 100,≤ 100,Cc1nc2c(F)c(-c3cccc(Cl)c3Cl)c(CCC#N)cc2c2c1cc([C@H]1C[C@H](n3ncnn3)CN1C(=O)C1CC1)n2[C@H]1[C@H]2CN[C@@H]1C2 [Example 396]
–,–,≤ 100,≤ 100,Cc1nc2c(F)c(-c3cccc(Cl)c3Cl)c(CCC#N)cc2c2c1cc([C@H]1C[C@H](OCc3ccccc3S(C)(=O)=O)CN1C(=O)C1CC1)n2[C@H]1[C@H]2CN[C@@H]1C2 [Example 163]
–,–,≤ 100,≤ 100,Cc1nc2c(F)c(-c3cccc(Cl)c3Cl)c(CCC#N)cc2c2c1cc([C@H]1C[C@H](OCc3cccnc3N)CN1C(=O)C1CC1)n2[C@H]1[C@H]2CN[C@@H]1C2 [Example 149]
–,–,≤ 100,≤ 100,Cc1nc2c(F)c(-c3cccc(Cl)c3Cl)c(CCC#N)cc2c2c1cc([C@H]1C[C@H](n3cnc(C4CC4)n3)CN1C(=O)C1CC1)n2[C@H]1[C@H]2CN[C@@H]1C2 [Example 278]
–,–,≤ 100,≤ 100,Cc1nc2c(F)c(-c3cccc(Cl)c3Cl)c(CCC#N)cc2c2c1cc([C@H]1C[C@H](OCc3ccn(C)n3)CN1C(=O)C1CC1)n2[C@H]1[C@H]2CN[C@@H]1C2 [Example 101]
–,–,≤ 100,≤ 100,Cc1ccc(CO[C@H]2C[C@H](c3cc4c(C)nc5c(F)c(-c6cccc(Cl)c6Cl)c(CCC#N)cc5c4n3[C@H]3[C@H]4CN[C@@H]3C4)N(C(=O)C3CC3)C2)cc1 [Example 92]
–,–,≤ 100,≤ 100,COC1CN(c2ccnc(O[C@H]3C[C@H](c4cc5c(C)nc6c(F)c(-c7cccc(Cl)c7Cl)c(CCC#N)cc6c5n4[C@H]4[C@H]5CN[C@@H]4C5)N(C(=O)C4CC4)C3)c2)C1 [Example 367]
–,–,≤ 100,100 to 1000,Cc1nc2c(F)c(-c3cccc(Cl)c3Cl)c(CCC#N)cc2c2c1cc([C@H]1C[C@H](OCc3c(F)cccc3F)CN1C(=O)c1ccccc1)n2[C@H]1[C@H]2CN[C@@H]1C2 [Example 195]
–,–,≤ 100,≤ 100,Cc1nc2c(F)c(-c3cccc(Cl)c3Cl)c(CCC#N)cc2c2c1cc([C@H]1C[C@H](Oc3cn(C)nc3C(F)(F)F)CN1C(=O)C1CC1)n2[C@H]1[C@H]2CN[C@@H]1C2 [Example 376]
–,–,≤ 100,≤ 100,Cc1nc2c(F)c(-c3cccc(Cl)c3Cl)c(CCC#N)cc2c2c1cc([C@H]1C[C@H](Oc3cnn(C(C)C)c3)CN1C(=O)C1CC1)n2[C@H]1[C@H]2CN[C@@H]1C2 [Example 442]
–,–,≤ 100,≤ 100,Cc1csnc1C(C)O[C@H]1C[C@H](c2cc3c(C(C)O)nc4c(F)c(-c5cccc(Cl)c5Cl)c(CCC#N)cc4c3n2[C@H]2[C@H]3CN[C@@H]2C3)N(C(=O)C2CC2)C1 (stereo partly drawn) [Example 334]
–,–,≤ 100,≤ 100,Cc1nc2c(F)c(-c3cccc(Cl)c3Cl)c(CCC#N)cc2c2c1cc([C@H]1C[C@H](n3cc(CCC(=O)O)nn3)CN1C(=O)C1CC1)n2[C@H]1[C@H]2CN[C@@H]1C2 [Example 322]
